In patent US12708106B2 (priority 2019, dated 2026):

System: Eimeria and Clostridium perfringens
Type: in vivo, male broilers
[1] = T4: 10 ppm (Enradin 8%), Eimeria + Clostridium challenge, mean ± SD

Question: Which results are given for Enramycin?
Answer: BWG—Body Weight Gain 1-7 D [1]: 90.95 ± 5.11 b g; FCR (Feed Conversion Ratio) 1-7 D [1]: 1.568 ± 0.123; BWG—Body Weight Gain 1-14 D (T4: 10 ppm, challenged): 413.37 ± 12.89 b g; BWG—Body Weight Gain 1-21 D (T4: 10 ppm, challenged): 926.22 ± 23.58 b g; BWG—Body Weight Gain 1-28 D (T4: 10 ppm, challenged): 1595.5 ± 42.62 b g; FCR (Feed Conversion Ratio) 1-14 D (T4: 10 ppm, challenged): 1.070 ± 0.049; FCR (Feed Conversion Ratio) 1-21 D (T4: 10 ppm, challenged): 1.255 ± 0.036 ab; FCR (Feed Conversion Ratio) 1-28 D (T4: 10 ppm, challenged): 1.228 ± 0.024 ab
